# Results: US20110165136A1, “Novel Herbal Composition for Treatment of Psoriasis and Other Skin Disorders” (HIMALAYA GLOBAL HOLDINGS LTD., priority 2010, published 2011)
# Tested on: Mouse tail
# Assay: Topical anti-psoriatic activity by Mouse tail test
# Format: in vivo
# Settings: follow up study, 0.005%
# Description: Pharmacological Screening of the Extracts and Oils for Topical Anti-Psoriatic Activity by Mouse Tail Test The composite extracts, oils blends and individual alcohol extracts were subjected to screening for evaluation of Anti-psoriatic activity by Mouse tail test and the results are summarized as FIG. 1-4.
structure (smiles),measurement,value
C=C1/C(=C\C=C2/CCC[C@]3(C)[C@@H]([C@H](C)/C=C/[C@@H](O)C4CC4)CC[C@@H]23)C[C@@H](O)C[C@@H]1O [Calcipotriol],para to orthokeratosis conversion,not found to be statistically significant
